SMILES strings stand for the structures. Where two headings read alike, the source gives them in different places. A value given as a limit tells only on which side of the number the result lay.

The source of these data is patent US20250160330A1, “METHOD FOR CONTROLLING HARMFUL ARTHROPODS OR HARMFUL NEMATODES USING ZOANTHAMINE ANALOG” (SUMITOMO CHEMICAL COMPANY, LIMITED, priority 2022, published 2025).

Assay [1] concerns silverleaf whiteflies (Bemisia tabaci). In words: Test method 6: foliar spray on tomato seedling with silverleaf whitefly larvae. As to conditions: in Solanum lycopersicum, 168 h, read-out: mortality of insects.
The test system of assay [2] is cotton worm (Spodoptera litura). The experiment in a line: Test method 2: foliar spray on cabbage seedling, cotton worm larvae. Format: in vivo. As to conditions: 144 h, read-out: mortality of insects. The protocol: (§1) Test compounds are made to a formulation according to a similar method to that described in the Formulation Example 5, and thereto is added water containing 0.03 v/v % of Shindain (registered trademark) to prepare a diluted solution containing a prescribed concentration of the test compound.
(§2) Cabbage (Brassicae oleracea) seedling (on the developmental stage of the third to fourth true leaf) is planted in a cup, and the diluted solutions are sprayed into the seedling at a ratio of 20 mL/seedling. Thereafter, ten (10) cotton worm (Spodoptera litura) at the third instar larval stage are released. After 6 days, the number of the surviving insects is counted, and the mortality of insects is calculated by the following equation.

Assay [3] has the same test system. The experiment in a line: Test method 1: foliar spray on cabbage seedling, cotton worm larvae. The assay is classed as in vivo. As to conditions: 144 h, read-out: mortality of insects. How it is done:
The test compounds are made to a formulation according to a similar method to that described in the Formulation Example 5, and thereto is added water containing 0.03 v/v % of Shindain (registered trademark) to prepare a diluted solution containing a prescribed concentration of the test compound.
as §2

Assay [4] concerns brown planthoppers (Nilaparvata lugens). The experiment in a line: Test method 4: foliar spray on rice seedling, brown planthopper larvae. As to conditions: 144 h, read-out: mortality of insects. Format: in vivo. How it is done:
as §1
Rice (Oryza sativa) seedling (on the developmental stage of the second true leaf) is planted in a cup, and the diluted solutions are sprayed into the seedling at a ratio of 10 mL/seedling. Thereafter, twenty (20) of 3rd instar larvae of brown planthoppers (Nilaparvata lugens) are released onto the rice leaves. After 6 days, the number of the surviving insects is examined and the mortality of insects is calculated by the following equation.

Assay [5] deals with cotton aphids (Aphis gossypii). The experiment in a line: Test method 3: foliar spray on cucumber seedling infested with cotton aphids. As to conditions: read-out: mortality of insects.
Assay [6] has as its system western flower thrips (Frankliniella occidentalis). In words: Test method 5: sprayed cucumber leaf, western flower thrips larvae. As to conditions: 144 h, read-out: mortality of insects. Format: in vivo. The protocol: as §1
Cucumber (Cucumber sativus) seedling (on the developmental stage of the second true leaf) is planted in a cup, and the diluted solutions are sprayed into the seedling at a ratio of 10 mL/seedling. Thereafter, the second true leaf is cut, and the cut leaf was placed in the cup, and approximately twenty (20) of larvae of western flower thrips (Frankliniella occidentalis) larvae are released onto the leaf. After 6 days, the number of the surviving insects is examined and the mortality of insects is calculated by the following equation.

The subject of assay [7] is northern house mosquitos (Culex pipiens pipiens). The experiment in a line: Test method 8: coated container contact test, northern house mosquito female adults. The assay is classed as in vivo. As to conditions: 24 h, read-out: mortality of insects. How it is done:
The test compounds are dissolved with acetone containing a surfactant, and the solution was then poured into a container of 20 mL contents, and the solution was coating uniformly in the inner face of the container such that the test compound is made 10 mg/m^2, and the surfactant is made 40 mg/m^2, and the container is dried.
Five (5) of female adult of northern house mosquitos (Culex pipiens pipiens) are placed in the contained, and the contained is put the lid. After the passing of the prescribed times, the state of the northern house mosquitos are examined, and the mortality is calculated by the following equation.

[8] abbreviates: 200 ppm, spray 10 mL/seedling on cucumber, cut second true leaf, larvae, after 6 days, 25° C.
[9] abbreviates: 200 ppm, spray 20 mL/seedling on cabbage, third instar larvae, after 6 days, 25° C. (test method 2).
Where [10] appears, read: 10 mg/m^2 coated on inner face of container, female adults, after one (1) day, 25° C.
[11] abbreviates: 200 ppm, spray 20 mL/seedling on cabbage, third instar larvae, after 6 days, 25° C.
[12] abbreviates: 200 ppm, spray 10 mL/seedling on rice, 3rd instar larvae, after 6 days, 25° C.

For orientation: mortality means the percentage killed. `CC1=CC(=O)[C@@H]2[C@@H](C1)[C@]1(C)C[C@@]34OC(=O)C[C@@](C)([C@H]1C(=O)[C@@H]2CO)[C@]3(C)CCC12C[C@@H](C)C[C@H](CN14)O2` [A-1]: the mortality at 200 ppm is no less than 90% in assay [1]; no less than 80% in assay [2]; no less than 80% in assay [3]; no less than 90% in assay [4]; no less than 90% in assay [5].
Turning to `C[C@@H]1CC(=O)[C@H]2CC(=O)[C@H]3[C@@](C)(C[C@@]45OC(=O)C[C@]3(C)[C@]4(C)CC[C@]34C[C@@H](C)C[C@H](CN35)O4)[C@@H]2C1` [A-18], the mortality at 200 ppm in assay [6] is no less than 90%; in assay [2] it was no less than 80%; in assay [3], no less than 80%; in assay [4], no less than 90%; in assay [5], no less than 90%.
Turning to `CC1CC(=O)[C@@H]2[C@@H](C1)[C@]1(C)C[C@@]34OC(=O)C[C@@](C)([C@H]1C(=O)[C@@H]2C)[C@]3(C)CC[C@]12C[C@@H](C)C[C@H](CN14)O2` (stereo partly drawn) [A-19], the mortality at 200 ppm was no less than 90% in assay [6]; no less than 80% in assay [2]; no less than 80% in assay [3]; no less than 90% in assay [4]; no less than 90% in assay [5]. Further, in assay [7], the mortality at 10 mg/m2 was no less than 80%.
With `CC1=CC(=O)[C@@H]2[C@@H](C1)[C@@]1(C)[C@H](C(=O)[C@@H]2C)[C@]2(C)CC(=O)O[C@@]3([C@H]1Cl)N1C[C@H]4C[C@H](C)C[C@]1(CC[C@@]23C)O4` [AA-2], the mortality at 200 ppm was no less than 90% in assay [1]; no less than 90% in assay [6]; no less than 80% in assay [2]; no less than 80% in assay [3]; no less than 90% in assay [4]; no less than 90% in assay [5]. The mortality at 10 mg/m2 in assay [7] is no less than 80%.
Regarding `CC[C@H]1C(=O)[C@H]2[C@@](C)(C[C@@]34OC(=O)C[C@]2(C)[C@]3(C)CC[C@]23C[C@@H](C)C[C@H](CN24)O3)[C@@H]2CC(C)=CC(=O)[C@H]21` [AA-3], the mortality at 200 ppm in assay [1] was no less than 90%; in assay [2], no less than 80%; in assay [3], no less than 80%; in assay [4], no less than 90%; in assay [5], no less than 90%. In assay [7], the mortality at 10 mg/m2 is no less than 80%.
For `Cc1cc(O)c2c(c1)[C@]1(C)C[C@@]34OC(=O)C[C@@](C)([C@H]1C(=O)[C@@H]2C)[C@]3(C)CC[C@@]12C[C@@H](C)C[C@H](CN14)O2` [B-1], the mortality at 200 ppm is no less than 90% in assay [6], no less than 80% in assay [2], no less than 80% in assay [3] and no less than 90% in assay [5]. Moreover, the mortality at 10 mg/m2 in assay [7] is no less than 80%.
On to `Cc1cc(O)c2c(c1)[C@]1(C)C[C@@]34OC(=O)C[C@@](C)([C@H]1C(=O)C2)[C@]3(C)CC[C@]12C[C@@H](C)C[C@H](CN14)O2` [B-2], for which the mortality at 200 ppm in assay [2] is no less than 80%; in assay [3], no less than 80%; in assay [4], no less than 90%; in assay [5] it was no less than 90%. Besides, the mortality at 10 mg/m2 in assay [7] was no less than 80%.
With `CC(=O)Oc1cc(C)cc2c1CC(=O)[C@H]1[C@@]2(C)C[C@@]23OC(=O)C[C@]1(C)[C@]2(C)CC[C@]12C[C@@H](C)C[C@H](CN13)O2` [BB-1], the mortality at 200 ppm was no less than 90% in assay [6] (setting [8]), no less than 80% in assay [2] (setting [9]), no less than 80% in assay [3] (setting [11]) and no less than 90% in assay [5]. In addition, in assay [7] (setting [10]), the mortality at 10 mg/m2 was no less than 80%.
On to `COC(=O)C[C@@]1(C)[C@H]2C(=O)C[C@@H]3C(=O)C=C(C)C[C@H]3[C@]2(C)C=C2N3C[C@H]4C[C@H](C)C[C@]3(CC[C@]21C)O4` [E-1], for which the mortality at 200 ppm was no less than 90% in assay [1]; no less than 90% in assay [6]; no less than 80% in assay [2]; no less than 90% in assay [4]; no less than 90% in assay [5]. Also, the mortality at 10 mg/m2 in assay [7] was no less than 80%.
`COC(=O)C[C@@]1(C)[C@H]2C(=O)CC3C(=O)CC(C)CC3[C@]2(C)C=C2N3C[C@H]4C[C@H](C)C[C@]3(CC[C@]21C)O4` (stereo partly drawn) [EE-1]: the mortality at 200 ppm in assay [1], in assay [6] (setting [8]) and in assay [5] was no less than 90% in each case. Besides, the mortality at 10 mg/m2 in assay [7] (setting [10]) was no less than 80%.
On to `CC1CC(=O)C2CC(=O)[C@H]3[C@@](C)(CC4=[N+]5C[C@H]6C[C@H](C)C[C@]5(CC[C@@]4(C)[C@@]3(C)CC(=O)O)O6)C2C1` (stereo partly drawn) [EE-2], for which the mortality at 200 ppm in assay [1] was no less than 90%; in assay [6], no less than 90%; in assay [2] it was no less than 80%; in assay [3], no less than 80%; in assay [4], no less than 90%; in assay [5] it was no less than 90%. Besides, in assay [7], the mortality at 10 mg/m2 was no less than 80%.
On to `CC1=CC(=O)[C@@H]2[C@@H](C1)[C@]1(C)C[C@H]3N4C[C@H]5C[C@H](C)C[C@]4(CC[C@@]3(C)[C@@](C)(CC(=O)O)[C@H]1C(=O)[C@@H]2C)O5` [EE-3], for which the mortality at 200 ppm in assay [6] (setting [8]) is no less than 90%; in assay [3] (setting [11]), no less than 80%; in assay [4] (setting [12]) it was no less than 90%; in assay [5] it was no less than 90%. In addition, the mortality at 10 mg/m2 in assay [7] (setting [10]) is no less than 80%.
For `COC(=O)C[C@@]1(C)[C@H]2C(=O)[C@H](C)[C@@H]3C(=O)C=C(C)C[C@H]3[C@]2(C)C=C2N3C[C@H]4C[C@H](C)C[C@]3(CC[C@]21C)O4` [EE-4], the mortality at 200 ppm was no less than 90% in assay [6] (setting [8]), no less than 80% in assay [2] (setting [9]) and no less than 90% in assay [4] (setting [12]). Besides, the mortality at 10 mg/m2 in assay [7] (setting [10]) was no less than 80%.
For the molecule `COC(=O)C[C@@]1(C)[C@H]2C(=O)[C@H](C)[C@@H]3C(=O)C=C(C)C[C@H]3[C@]2(C)C[C@H]2N3C[C@H]4C[C@H](C)C[C@]3(CC[C@]21C)O4` [EE-5], the mortality at 200 ppm in assay [6] was no less than 90%; in assay [2], no less than 80%; in assay [3] it was no less than 80%; in assay [4], no less than 90%; in assay [5] it was no less than 90%. Besides, the mortality at 10 mg/m2 in assay [7] was no less than 80%.
`CC1CC(O)C2CC(=O)[C@H]3[C@@](C)(CC4N5C[C@H]6C[C@H](C)C[C@]5(CC[C@@]4(C)[C@@]3(C)CC(=O)O)O6)C2C1` (stereo partly drawn) [EE-6]: the mortality at 200 ppm in assay [6] (setting [8]) was no less than 90%; in assay [2] (setting [9]), no less than 80%. Besides, the mortality at 10 mg/m2 in assay [7] (setting [10]) is no less than 80%.
For the molecule `CC1CC(O)[C@H]2CC(=O)[C@H]3[C@@](C)(CC4N5C[C@H](O)C[C@H](C)CC5CC[C@@]4(C)[C@@]3(C)CC(=O)O)[C@@H]2C1` (stereo partly drawn) [GG-1], the mortality at 10 mg/m2 in assay [7] is no less than 80%. In assay [4], the mortality at 200 ppm was no less than 90%.
As to `COC(=O)C[C@@]1(C)[C@H]2C(=O)C[C@@H]3C(=O)CC(C)C[C@H]3[C@]2(C)CC2N3C[C@H](O)C[C@H](C)CC3CC[C@]21C` (stereo partly drawn) [GG-2], the mortality at 10 mg/m2 in assay [7] is no less than 80%.
In the case of `CC1=CC(=O)[C@@H]2[C@@H](C1)[C@]1(C)CC3N4C[C@H](O)C[C@H](C)C[C@@H]4CC[C@@]3(C)[C@@](C)(CC(=O)O)[C@H]1C(=O)[C@@H]2C` (stereo partly drawn) [GG-3], the mortality at 200 ppm in assay [6] is no less than 90%; in assay [3], no less than 80%; in assay [4], no less than 90%; in assay [5], no less than 90%. In addition, in assay [7], the mortality at 10 mg/m2 is no less than 80%.
